Where only a bound is given, the exact number is not on record here.

What all share (format): cell-based
One test deals with NK1 (Homo sapiens, UniProt P25103). As to the kind of experiment: Signal transduction (ST), intracellular Ca++ FLIPR, NK1. Particulars: antagonist, Ca++ transient peak, read-out: NK1 pIC50 (converted). The procedure: (§1) This test evaluates in vitro functional NK1 antagonistic activity. For the measurements of intracellular Ca^++ concentrations the cells were grown on 96-well (black wall/transparent bottom) plates from Costar for 2 days until they reached confluence. The cells were loaded with 2 μM Fluo3 in DMEM containing 0.1% BSA and 2.5 mM probenecid for 1 h at 37° C. They were washed 3× with a Krebs buffer (140 mM NaCl, 1 mM MgCl2x6H2O, 5 mM KCl, 10 mM glucose, 5 mM HEPES; 1.25 mM CaCl2; pH 7.4) containing 2.5 mM probenecid and 0.1% BSA (Ca^++-buffer). The cells were preincubated with a concentration range of antagonists for 20 min at RT and Ca^++-signals after addition of the agonists were measured in a Fluorescence Image Plate Reader (FLIPR from Molecular Devices, Crawley, England). The peak of the Ca^++-transient was considered as the relevant signal and the mean values of corresponding wells were analysed as described below.
NK1, sequence (P25103 whole entry): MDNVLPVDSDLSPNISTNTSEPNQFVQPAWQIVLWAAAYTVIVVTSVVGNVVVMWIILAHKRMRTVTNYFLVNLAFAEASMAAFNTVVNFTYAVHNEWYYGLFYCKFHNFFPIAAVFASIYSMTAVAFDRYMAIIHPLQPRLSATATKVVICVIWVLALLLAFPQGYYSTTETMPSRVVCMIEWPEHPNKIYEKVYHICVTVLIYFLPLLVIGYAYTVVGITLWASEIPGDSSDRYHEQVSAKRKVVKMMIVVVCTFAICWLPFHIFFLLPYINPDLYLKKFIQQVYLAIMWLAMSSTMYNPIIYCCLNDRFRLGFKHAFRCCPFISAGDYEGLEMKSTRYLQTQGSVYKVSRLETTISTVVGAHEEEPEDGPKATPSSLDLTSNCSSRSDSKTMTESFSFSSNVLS
The sigmoidal dose response curves were analysed by computerised curve-fitting, using the GraphPad program. The EC50-value of a compound is the effective dose showing 50% of maximal effect. For mean curves the response to the agonist with the highest potency was normalised to 100%. For antagonist responses the IC50-value was calculated using non-linear regression. […]

The next test has as its target T1, NK2 (Homo sapiens, UniProt P21452).
T1 sequence (P21452 1-398): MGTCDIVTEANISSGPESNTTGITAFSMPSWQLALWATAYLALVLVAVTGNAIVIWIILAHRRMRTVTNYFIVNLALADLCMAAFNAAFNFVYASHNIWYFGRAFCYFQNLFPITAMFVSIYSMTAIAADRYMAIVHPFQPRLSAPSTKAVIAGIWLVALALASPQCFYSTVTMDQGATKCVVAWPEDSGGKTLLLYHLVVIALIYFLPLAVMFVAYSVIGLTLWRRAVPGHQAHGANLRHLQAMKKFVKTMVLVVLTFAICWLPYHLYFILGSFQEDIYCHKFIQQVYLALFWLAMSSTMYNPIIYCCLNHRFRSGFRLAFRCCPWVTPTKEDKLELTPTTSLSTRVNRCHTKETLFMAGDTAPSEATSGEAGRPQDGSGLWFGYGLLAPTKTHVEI
As to the kind of experiment: Signal transduction (ST), intracellular Ca++ FLIPR, NK2. The note with it: antagonist, Ca++ transient peak, read-out: NK2 pIC50 (converted). How it is done:
[The source words this procedure for another target and reports this target under the same test.] as §1
(§2) The sigmoidal dose response curves were analysed by computerised curve-fitting, using the GraphPad program. The EC50-value of a compound is the effective dose showing 50% of maximal effect. For mean curves the response to the agonist with the highest potency was normalised to 100%. For antagonist responses the IC50-value was calculated using non-linear regression.
(§3) The last columns indicates—without being limited thereto—for which use the compounds might be most suitable. Of course, since for some neurokinin receptors no data was determined, it is obvious that these compounds might be attributed to another suitable use.

The target in a further test is T2, NK3 (Homo sapiens, UniProt P29371).
T2 sequence (P29371 1-465): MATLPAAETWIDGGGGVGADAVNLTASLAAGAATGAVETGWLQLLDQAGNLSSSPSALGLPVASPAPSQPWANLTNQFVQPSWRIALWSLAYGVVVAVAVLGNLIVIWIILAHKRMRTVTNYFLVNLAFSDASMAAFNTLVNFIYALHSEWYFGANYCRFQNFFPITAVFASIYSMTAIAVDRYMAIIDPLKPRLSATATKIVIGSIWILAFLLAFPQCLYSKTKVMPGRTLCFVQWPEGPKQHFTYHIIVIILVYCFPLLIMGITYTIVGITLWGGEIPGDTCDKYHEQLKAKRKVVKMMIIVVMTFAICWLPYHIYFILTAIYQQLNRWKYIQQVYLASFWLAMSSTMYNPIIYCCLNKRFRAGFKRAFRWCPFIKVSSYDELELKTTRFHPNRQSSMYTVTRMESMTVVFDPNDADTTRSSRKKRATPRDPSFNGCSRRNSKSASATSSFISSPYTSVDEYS
As to the kind of experiment: Signal transduction (ST), intracellular Ca++ FLIPR, NK3. Particulars: antagonist, Ca++ transient peak, read-out: NK3 pIC50 (converted). How it is done: [The source words this procedure for another target and reports this target under the same test.] as §1, §2, §3

Take `O=C(c1cccs1)N1CCC(N2CCN(C[C@H]3CCN(C(=O)c4cc(C(F)(F)F)cc(C(F)(F)F)c4)[C@H](Cc4ccccc4)C3)CC2)CC1` (relative stereo) [Compound 37]: the IC50 on NK1 is 0.275 µM; on NK2, 8.91 µM; at NK3 it was 7.08 µM.
As to `O=C(c1ccoc1)N1CCC(N2CCN(CC3CCN(C(=O)c4cc(C(F)(F)F)cc(C(F)(F)F)c4)C(Cc4ccccc4)C3)CC2)C1` (centres unmarked) [Compound 11], the IC50 at NK1 is 0.0501 µM; on NK2, 7.41 µM; at NK3, about 7.94 µM.
The like results for `O=C(C1CC1)N1CCC(N2CCN(CC3CCN(C(=O)c4cc(C(F)(F)F)cc(C(F)(F)F)c4)C(Cc4ccccc4)C3)CC2)CC1` (centres unmarked) [Compound 15] were, in that order, 0.191 µM, about 3.16 µM and about 7.76 µM.
The like results for `O=C(c1cc(C(F)(F)F)cc(C(F)(F)F)c1)N1CCC(CN2CCN(C3CCN(c4ncccn4)CC3)CC2)CC1Cc1ccccc1` (centres unmarked) [Compound 17] were, in that order, 0.0851 µM, 7.24 µM and 5.25 µM.
On the same counts, the results for `Cc1ccc(N2CCC(N3CCN(CC4CCN(C(=O)c5cc(C(F)(F)F)cc(C(F)(F)F)c5)C(Cc5ccccc5)C4)CC3)CC2)nn1` (centres unmarked) [Compound 18] are 0.229 µM, over 10 µM and over 10 µM.
Take `O=C(c1cc(C(F)(F)F)cc(C(F)(F)F)c1)N1CCC(CN2CCN(C3CCN(c4cnccn4)CC3)CC2)CC1Cc1ccccc1` (centres unmarked) [Compound 19]: the IC50 on NK1 was 0.288 µM; on NK2 it was over 10 µM; on NK3, 7.94 µM.
Consider `Cn1c(Cl)cnc1CN1CCC(N2CCN(CC3CCN(C(=O)c4cc(C(F)(F)F)cc(C(F)(F)F)c4)C(Cc4ccccc4)C3)CC2)CC1` (centres unmarked) [Compound 20], for which the IC50 was 0.0933 µM at NK1, over 10 µM at NK2 and over 10 µM at NK3.
For the molecule `O=C(c1cccnc1)N1CCC(N2CCN(C[C@H]3CCN(C(=O)c4cc(C(F)(F)F)cc(C(F)(F)F)c4)[C@H](Cc4ccccc4)C3)CC2)CC1` [Compound 48], the IC50 at NK1 is 0.0257 µM; at NK2, over 10 µM.
With `COc1cccc(CC(=O)N2CCC(N3CCN(CC4CCN(C(=O)c5cc(C(F)(F)F)cc(C(F)(F)F)c5)C(Cc5ccccc5)C4)CC3)CC2)c1` (centres unmarked) [Compound 52], the IC50 on NK1 is 0.316 µM; on NK2, 2.34 µM; on NK3 it was about 9.77 µM.
On the same counts, the results for `O=C(C1CC1)N1CCC(N2CCN(C(=O)[C@H]3CCN(C(=O)c4cc(C(F)(F)F)cc(C(F)(F)F)c4)[C@H](Cc4ccccc4)C3)CC2)CC1` [Compound 56] are 0.0123 µM, 4.68 µM and 0.692 µM.
On the same counts, the results for `O=C(c1cc(C(F)(F)F)cc(C(F)(F)F)c1)N1CCC(CN2CCN(C3CCNC3)CC2)CC1Cc1ccccc1` (centres unmarked) [Compound 60] are 0.182 µM, over 10 µM and over 10 µM.
On the same counts, the results for `O=C(C1CC1)N1CCC(N2CCN(C[C@H]3CCN(C(=O)c4cc(C(F)(F)F)cc(C(F)(F)F)c4)[C@H](Cc4ccccc4)C3)CC2)C1` (some centres unmarked) [Compound 61] are 0.0741 µM, over 10 µM and over 10 µM.
For `O=C(c1ccsc1)N1CCC(N2CCN(C[C@H]3CCN(C(=O)c4cc(C(F)(F)F)cc(C(F)(F)F)c4)[C@H](Cc4ccccc4)C3)CC2)C1` (some centres unmarked) [Compound 62], the IC50 is 0.1 µM at NK1, 7.24 µM at NK2 and over 10 µM on NK3.
The like results for `Cc1nnsc1C(=O)N1CCC(N2CCN(C[C@H]3CCN(C(=O)c4cc(C(F)(F)F)cc(C(F)(F)F)c4)[C@H](Cc4ccccc4)C3)CC2)C1` (some centres unmarked) [Compound 63] were, in that order, 0.0708 µM, over 10 µM and over 10 µM.
On the same counts, the results for `O=C(c1ccccc1)N1CCC(N2CCN(C[C@H]3CCN(C(=O)c4cc(C(F)(F)F)cc(C(F)(F)F)c4)[C@H](Cc4ccccc4)C3)CC2)C1` (some centres unmarked) [Compound 64] are 0.117 µM, over 10 µM and over 10 µM.
On the same counts, the results for `O=C(c1cccnc1)N1CCC(N2CCN(C[C@H]3CCN(C(=O)c4cc(C(F)(F)F)cc(C(F)(F)F)c4)[C@H](Cc4ccccc4)C3)CC2)C1` (some centres unmarked) [Compound 65] are 0.105 µM, over 10 µM and over 10 µM.
Consider `O=C(c1cc(C(F)(F)F)cc(C(F)(F)F)c1)N1CCC(O)(CN2CCN(C3CCNC3)CC2)CC1Cc1ccccc1` (centres unmarked) [Compound 76], for which the IC50 was 0.148 µM on NK1, over 10 µM at NK2 and over 10 µM on NK3.
For the molecule `O=C(C1CC1)N1CCC(N2CCN(CC3(O)CCN(C(=O)c4cc(C(F)(F)F)cc(C(F)(F)F)c4)C(Cc4ccccc4)C3)CC2)C1` (centres unmarked) [Compound 77], the IC50 at NK1 was 0.0427 µM; at NK2, 7.94 µM; at NK3, 2.88 µM.
On the same counts, the results for `O=C(c1ccoc1)N1CCC(N2CCN(CC3(O)CCN(C(=O)c4cc(C(F)(F)F)cc(C(F)(F)F)c4)C(Cc4ccccc4)C3)CC2)C1` (centres unmarked) [Compound 78] are 0.0363 µM, 8.91 µM and 2.51 µM.
On the same counts, the results for `O=C(c1ccccc1)N1CCC(N2CCN(CC3(O)CCN(C(=O)c4cc(C(F)(F)F)cc(C(F)(F)F)c4)C(Cc4ccccc4)C3)CC2)C1` (centres unmarked) [Compound 79] are 0.0316 µM, 9.12 µM and 7.24 µM.
The like results for `O=C(c1cccnc1)N1CCC(N2CCN(CC3(O)CCN(C(=O)c4cc(C(F)(F)F)cc(C(F)(F)F)c4)C(Cc4ccccc4)C3)CC2)C1` (centres unmarked) [Compound 80] were, in that order, 0.0302 µM, 8.13 µM and over 10 µM.
As to `O=C(C1CCOC1)N1CCC(N2CCN(C(=O)[C@H]3CCN(C(=O)c4cc(C(F)(F)F)cc(C(F)(F)F)c4)[C@H](Cc4ccccc4)C3)CC2)CC1` (some centres unmarked) [Compound 92], the IC50 was 0.024 µM on NK1, 6.76 µM at NK2 and 0.871 µM at NK3.
In the case of `Cc1nnsc1C(=O)N1CCC(N2CCN(CC3(O)CCN(C(=O)c4cc(C(F)(F)F)cc(C(F)(F)F)c4)C(Cc4ccccc4)C3)CC2)C1` (centres unmarked) [Compound 93], the IC50 on NK1 was 0.0398 µM; at NK2, 7.76 µM; at NK3 it was 4.27 µM.

For the origin of these results see patent publication US20070213346A1, “Substituted 4-Alkyl-And 4-Alkanoyl-Piperidine Derivatives And Their Use As Neurokinin Antagonists” (priority 2004, published 2007).
